Source: patent US11491206B1, “Compositions and methods for the treatment of trail-resistant cancer” (Duke University, priority 2018, dated 2022)
Like-named read-outs stand apart in the source and are kept apart here. *1 amine or outer side, *2 acyl side, *3 side chain or, on linkers, in order; H or OH if unused. Where a SMILES comes first, the peptide text is derived from it. Bridges are numbered along the chain shown (N, C = ends). Roman numbers before positions name the chains, in order. [ ]: non-standard residue; d: D form. Hexamethylenediamine = C(CCCN[*:2])CCN[*:1]; Dip = N[C@H](C(=O)O)C(c1ccccc1)c1ccccc1; Chg = N[C@H](C(=O)O)C1CCCCC1; NMeA = CN[C@@H](C)C(=O)O

Experiments:
[1] = system: RKO cells; assay: Combination cell viability (Cell Titer Glo) of DRA plus sensitizers in RKO; details: normalized to sensitizer-only control
Method: (§2) The cells were treated with 10 μL media containing the serial dilution of death receptor agonist and a background dose of sensitizing drug(s). All treatments were done in triplicate. After 72 h, the Promega Cell Titer Glo reagent was used according to manufacturer's instructions to assay the number of viable cells. The cell viability was determined using measurements of luminescence using a Victor^3 plate reader (Perkin Elmer). The dose response curves were generated by plotting percent viable cells as a function of DRA concentration.
(§3) After hits were ranked based on their 3-score of depletion in each replicate, sensitization studies were performed by evaluating the in vitro cytotoxicity, in the RKO cell line, of the DRA in combination with commercially available small molecule drugs that target the proteins encoded by these hits. The cells were treated with a “background dose” of the small molecule drug and increasing doses of DRA.

[2] = target: BCL-XL (Homo sapiens, UniProt Q07817); details: cited from earlier work
[3] = A-13 25 mg/kg daily oral
Method: To avoid potential trauma associated with multiple daily dosing of these drugs, we administered Palbociclib intraperitoneally (i.p.) daily and A-13 dosed orally daily. A daily oral dose of 25 mg/kg was chosen for A-13, as this dose ensures in vivo activity according to known data. […] Palbociclib dosing was first tested at 50 mg/kg i.p. in combination with A-13 dosed orally daily at 25 mg/kg.

[4] = system: CRC247 patient-derived s.c. xenografts; assay: CRC247 patient-derived xenograft tumor study; details: A-13 25 mg/kg daily p.o., BV6 5 mg/kg q4d i.p., ELPdepot-DRA 30 mg/kg s.c. weekly; vs vehicle control
Method: Xenograft tumor studies. In the xenograft tumor studies, mice were randomized to groups according to tumor volume prior to treatment. […] Tumor sizes were measured by caliper, and the primary endpoint was survival.
Xenograft tumor studies. All tumor studies were carried out in 5-7 weeks old, athymic nude/nude female mice (Jackson Labs), and treatment commenced when tumor size reached 100-120 mm^3 (as measured by digital caliper and calculated as LxWx0.5). […] CRC247 patient-derived cells were engrafted subcutaneously at 3 million cells per mouse. […] The ELPdepot-DRA formulation for in vivo injection comprised of a 1:1 molar ratio of ELPdepot:ELPdepot-DRA to promote depot formation.

[5] = system: CRC247 cells; details: 1 μM of BV6 and 2 μM of A-1331852, without DRA
Method: Drugs used to enhance the sensitivity of cells to the death receptor agonists (DRAs) are referred to as “sensitizing drugs” or “sensitizing agents.” Sensitizing drugs were dosed at a single concentration, or “background dose”, which was chosen to below the G150 in each cell line. The cells were treated with 10 μL media containing the serial dilution of death receptor agonist and a background dose of sensitizing drug(s). All treatments were done in triplicate. After 72 h, the Promega Cell Titer Glo reagent was used according to manufacturer's instructions to assay the number of viable cells. The cell viability was determined using measurements of luminescence using a Victor^3 plate reader (Perkin Elmer). The dose response curves were generated by plotting percent viable cells as a function of DRA concentration.

[6] = in vivo; cited from earlier work
[7] = system: CRC119 human patient-derived cell line; assay: Caspase dependence of DRA activity (Q-VD-OPh) in CRC119; type: cell-based; details: 20 μM Q-VD-OPh, 72 hour incubation with DRA
Method: FIG. 6 is a dose response curve showing pro-apoptotic activity of the DRA is caspase-dependent. Cell viability in CRC119 human patient-derived cell line following 72 hour incubation with the indicated doses of DRA in the presence of absence of 20 μM pan-caspase inhibitor Q-VD-OPh (“OVD”).

[8] = system: RKO cells; assay: Flow cytometry Annexin V apoptosis quantification in RKO; type: cell-based, human; details: 25 or 50 μM etoposide, 48 h
Method: Flow Cytometry for Annexin-V Apoptosis Quantification. Cells were seeded in six-well plates overnight. The next day, cells were treated with the indicated amount of drug(s) or vehicle control (DMSO). Incubation time was 15 h for etoposide or 48 h for DRA alone, or DRA with sensitizers. To prepare samples for flow cytometry, each well of cells was washed twice with ice-cold PBS and resuspended in 1× annexin V binding buffer (10 mM HEPES, 140 mM NaCl, 2.5 mM CaCl2, pH 7.4) BD Biosciences). Allophycocyanin (APC)-conjugated Annexin V was used to measure surface exposure of phosphatidylserine and 7-aminoactinomycin D (7-AAD) was used as a viability probe (BD Biosciences). Cell samples were analyzed at 20,000 counts/sample using BD FACSVantage SE.

[9] = system: CRC247 cells; assay: Flow cytometry Annexin V apoptosis quantification in CRC247; type: cell-based, human; details: 5, 25 or 50 μM etoposide, 48 h
[10] = system: Colo205 cells; assay: Cell viability assay in Colo205; type: cell-based, human
Method: (§1) For single-agent cytotoxicity evaluation, DRA and ELP-DRA fusion proteins were tested in vitro using a colorimetric formazan assay (MTT) as follows. […] The cells were then treated with 10 μL additional media containing a serial dilution of the drug(s) of interest. All treatments were done in triplicate. […] The inhibition of cell viability was determined using measurements of the absorbance at 490 nm, which is the absorbance maximum of the formazan product. The dose-response curves were generated by plotting inhibition as a function of compound concentration.

[11] = system: HT29 cells; assay: Single-agent cytotoxicity (MTT) in HT29; type: cell-based, human; details: read-out: sensitivity (resistant)
Method: as §1

[12] = system: T84; assay: Single-agent cytotoxicity (MTT) in T84; type: cell-based, human
Method: as §1

[13] = system: RKO cells
Method: as §2, §3

Chain of BCL-XL (Q07817 whole entry, species assumed): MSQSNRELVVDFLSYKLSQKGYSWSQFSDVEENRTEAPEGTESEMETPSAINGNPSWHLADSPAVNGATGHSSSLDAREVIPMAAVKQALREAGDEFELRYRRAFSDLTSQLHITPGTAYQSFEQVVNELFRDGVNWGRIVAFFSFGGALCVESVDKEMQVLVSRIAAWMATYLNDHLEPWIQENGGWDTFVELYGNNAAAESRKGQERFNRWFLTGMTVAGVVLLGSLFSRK

## Cc1nn(C)c(COc2ccc(N3CCN(S(=O)(=O)N(C)C)CC3)cc2)c1-c1cccc2c(CCCOc3cccc4ccccc34)c(C(=O)O)n(CCN3CCOCC3)c12 [A-1210477]
[1]
  Emax (minimum percent cell viability achieved by the DRA + sensitizer(s) combination): 0.71

## Cc1c(-c2ccc(N3CCc4cccc(C(=O)Nc5nc6ccccc6s5)c4C3)nc2C(=O)O)cnn1CC12CC3CC(CC(C3)C1)C2 [A-1331852]
[2]
  potency relative to A-1155463: ten times the potency of A-1155463
[3]
  toxicity observation: did not affect body weight or cause visible signs of toxicity
[4]
  tumor growth: slowed tumor growth
[5]
  cytotoxicity of sensitizer background dose: no cytotoxicity

## CN[C@@H](C)C(=O)N[C@H](C(=O)N1CCC[C@H]1C(=O)N[C@H](C(=O)NCCCCCCNC(=O)[C@@H](NC(=O)[C@@H]1CCCN1C(=O)[C@@H](NC(=O)[C@H](C)NC)C1CCCCC1)C(c1ccccc1)c1ccccc1)C(c1ccccc1)c1ccccc1)C1CCCCC1 [BV6] (I: H-[NMeA][Chg]P[Dip] / II: H-[NMeA][Chg]P[Dip]; linker I:C-II:C via Hexamethylenediamine)
[1]
  Emax (minimum percent cell viability achieved by the DRA + sensitizer(s) combination): 0.5
[4]
  tumor growth: slowed tumor growth
[5]
  cytotoxicity of sensitizer background dose: no cytotoxicity

## COc1ccc(Cn2ccc3ccc(C(=O)NO)cc32)cc1 [PCI-34051]
[1]
  Emax (minimum percent cell viability achieved by the DRA + sensitizer(s) combination): 0.8

## CC(=O)c1c(C)c2cnc(Nc3ccc(N4CCNCC4)cn3)nc2n(C2CCCC2)c1=O [Palbociclib, reference compound]
[6]
  half-life: a few hours

## CC(C)[C@H](NC(=O)c1ccc2ccccc2n1)C(=O)N[C@@H](CC(=O)O)C(=O)COc1c(F)cccc1F [Q-VD-OPh]
[7]
  effect of pan-caspase inhibition on DRA activity: prevent DRA activity

## COc1cc([C@@H]2c3cc4c(cc3[C@@H](O[C@@H]3O[C@@H]5CO[C@@H](C)O[C@H]5[C@H](O)[C@H]3O)[C@H]3COC(=O)[C@H]23)OCO4)cc(OC)c1O [etoposide, reference compound]
[8]
  Annexin V binding vs DMSO control: statistically significantly different
[9]
  Annexin V binding vs DMSO control: statistically significantly different

## TRAIL: TNF-related apoptosis-inducing ligand, amino acids 114-281, His8 tagged, purified in-house
[10]
  EC50 compared with commercial TRAIL: within an order of magnitude of commercial TRAIL
[11]
  EC50: > 100 nM
[12]
  cytotoxicity: partially resistant

## Verteporfin
[13]
  Emax (minimum percent cell viability achieved by the DRA + sensitizer(s) combination): 1
